# In patent US10681909B2, “Herbicidal triazoles” (FMC Corporation, priority 2014, dated 2020):
# Key:
# [1] = system: galium; assay: Test C preemergence; assay type: in vivo, Galium aparine; conditions: for Plant response rating (scale of 0 to 100 where 0 is no effect and 100 is complete control): Galium, preemergence; for Galium plant response rating (0 to 100): Preemergence, visual rating after 13 to 15 d
# Text: (§1) Seeds of plant species selected from blackgrass (Alopecurus myosuroides), ryegrass, Italian (Italian ryegrass, Lolium multiflorum), wheat (winter wheat, Triticum aestivum), galium (catchweed bedstraw, Galium aparine), corn (Zea mays), crabgrass, large (large crabgrass, Digitaria sanguinalis), foxtail, giant, (giant foxtail, Setaria faberii), johnsongrass (Sorghum halepense), lambsquarters (Chenopodium album), morningglory (Ipomoea coccinea), nutsedge, yellow (yellow nutsedge, Cyperus esculentus), pigweed (Amaranthus retroflexus), ragweed (common ragweed, Ambrosia elatior), soybean (Glycine max), barnyardgrass (Echinochloa crus-galli), oilseed rape (Brassica napus), waterhemp (common waterhemp, Amaranthus rudis), and velvetleaf (Abutilon theophrasti) were planted into a blend of loam soil and sand and treated preemergence with test chemicals formulated in a non-phytotoxic solvent mixture which included a surfactant. At the same time, plants selected from these crop and weed species and also chickweed (common chickweed, Stellaria media), oat, wild (wild oat, Avena fatua), and kochia (Kochia scoparia), were planted in pots containing Sunshine Redi-Earth® planting medium comprising spaghnum peat moss, vermiculite, starter nutrients and dolomitic limestone and treated with postemergence applications of test chemicals formulated in the same manner. Plants ranged in height from 2 to 18 cm (1- to 4-leaf stage) for postemergence treatments. […] A dash (-) response means no test result.
# [2] = system: kochia; assay: Test A postemergence; assay type: in vivo, Kochia scoparia; conditions: 0 to 100 scale (0 no effect, 100 complete control), approx. 10 d
# Procedure, shortened: (§2)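 Visual 0–100 ratings (0 no effect, 100 complete control) made roughly 10 days after treatment, comparing greenhouse-grown plants to untreated controls. Formulated test chemicals, with surfactant, went either as directed soil spray at planting or onto 2–10 cm seedlings bearing one to two leaves.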
# [3] = system: ragweed; assay: Test A preemergence; assay type: in vivo, Ambrosia elatior; conditions: 0 to 100 scale (0 no effect, 100 complete control)
# Procedure, shortened: as §2
# [4] = system: ragweed; assay: Test C preemergence; assay type: in vivo, Ambrosia elatior; conditions: for Ragweed plant response rating (0 to 100): Preemergence, visual rating after 13 to 15 d; for Plant response rating (scale of 0 to 100 where 0 is no effect and 100 is complete control): Ragweed, preemergence
# Text: as §1
# [5] = system: galium; assay: Test D preemergence; assay type: in vivo, Galium aparine; conditions: for Plant response rating (0 to 100), Galium: 16 g ai/ha, 0 is no effect, 100 is complete control; for Plant response rating: Galium: scale 0 to 100
# Text: (§3) Seeds of plant species selected from bluegrass (annual bluegrass, Poa annua), blackgrass (Alopecurus myosuroides), canarygrass (Phalaris minor), chickweed (common chickweed, Stellaria media), galium (catchweed bedstraw, Galium aparine), bromegrass, down (downy bromegrass, Bromus tectorum), Russian thistle (Salsola kali), field poppy (Papaver rhoeas), field violet (Viola arvensis), foxtail, green (green foxtail, Setaria viridis), deadnettle (henbit deadnettle, Lamium amplexicaule), ryegrass, Ital. (Italian ryegrass, Lolium multiflorum), kochia (Kochia scoparia), lambsquarters (Chenopodium album), oilseed rape (Brassica napus), pigweed (Amaranthus retroflexus), chamomile (scentless chamomile, Matricaria inodora), speedwell (bird's-eye speedwell, Veronica persica), barley, spring (spring barley, Hordeum vulgare), wheat, spring (spring wheat, Triticum aestivum), buckwheat, wild (wild buckwheat, Polygonum convolvulus), wild mustard (Sinapis arvensis), oat, wild (wild oat, Avena fatua), radish, wild (wild radish, Raphanus raphanistrum), […]), barley, winter (winter barley, Hordeum vulgare), and wheat, winter (winter wheat, Triticum aestivum) were planted into a silt loam soil and treated preemergence with test chemicals formulated in a non-phytotoxic solvent mixture which included a surfactant. At the same time, these species were planted in pots containing Sunshine Redi-Earth® planting medium comprising spaghnum peat moss, vermiculite, starter nutrients and dolomitic limestone and treated with postemergence applications of the test chemicals formulated in the same manner. Plants ranged in height from 2 to 18 cm (1- to 4-leaf stage). Treated plants and controls were maintained in a controlled growth environment for 14 to 21 d after which time all species were compared to controls and visually evaluated. […] A dash (-) response means no test result.
# [6] = system: windgrass; assay: Test D postemergence; assay type: in vivo, Apera spica-venti; conditions: scale 0 to 100
# Text: as §3
# [7] = system: oat, wild; assay: Test D postemergence; assay type: in vivo, Avena fatua; conditions: scale 0 to 100
# Text: as §3
# [8] = system: field poppy; assay: Test D postemergence; assay type: in vivo, Papaver rhoeas; conditions: scale 0 to 100
# Text: as §3
# [9] = system: ryegrass, Ital.; assay: Test D postemergence; assay type: in vivo, Lolium multiflorum; conditions: scale 0 to 100
# Text: as §3
# [10] = system: field poppy; assay: Test D preemergence; assay type: in vivo, Papaver rhoeas; conditions: for Plant response rating (0 to 100), Field Poppy: 16 g ai/ha, 0 is no effect, 100 is complete control; for Plant response rating: Field Poppy: scale 0 to 100
# Text: as §3
# [11] = system: canarygrass; assay: Test D preemergence; assay type: in vivo, Phalaris minor; conditions: for Plant response rating (0 to 100), Canarygrass: 16 g ai/ha, 0 is no effect, 100 is complete control; for Plant response rating: Canarygrass: scale 0 to 100
# Text: as §3
# [12] = system: lambsquarters; assay: Test D postemergence; assay type: in vivo, Chenopodium album; conditions: scale 0 to 100
# Text: as §3
# [13] = system: nutsedge, yellow; assay: Test C preemergence; assay type: in vivo, Cyperus esculentus; conditions: for Plant response rating (scale of 0 to 100 where 0 is no effect and 100 is complete control): Nutsedge, Yellow, preemergence; for Nutsedge, Yellow plant response rating (0 to 100): Preemergence, visual rating after 13 to 15 d
# Text: as §1
smiles,measurement,setting,value
FC(F)(F)COc1nc(-c2ccccc2)nn1Cc1ccnc(C(F)(F)F)c1 [Compound 24],Plant response rating (scale of 0 to 100 where 0 is no effect and 100 is complete control),[1]; 125 g ai/ha,50
same,Plant response rating (scale of 0 to 100 where 0 is no effect and 100 is complete control),[1]; 250 g ai/ha,90
same,Galium plant response rating (0 to 100),[1]; 31 g ai/ha,5
same,Galium plant response rating (0 to 100),[1]; 62 g ai/ha,30
same,"Plant response rating, Kochia",[2]; 125 g ai/ha,90
same,"Plant response rating, Kochia",[2]; 500 g ai/ha,90
same,"Plant response rating, Ragweed","[3]; 500 g ai/ha, approx. 10 d",40
same,Ragweed plant response rating (0 to 100),[4]; 31 g ai/ha,5
same,Ragweed plant response rating (0 to 100),[4]; 62 g ai/ha,25
same,Plant response rating (scale of 0 to 100 where 0 is no effect and 100 is complete control),[4]; 125 g ai/ha,25
same,Plant response rating (scale of 0 to 100 where 0 is no effect and 100 is complete control),[4]; 250 g ai/ha,55
same,"Plant response rating (0 to 100), Galium",[5],55
same,Plant response rating: Galium,[5]; 62 g ai/ha,65
same,Plant response rating: Galium,[5]; 125 g ai/ha,75
same,Plant response rating: Windgrass,[6]; 16 g ai/ha,20
same,Plant response rating: Windgrass,[6]; 31 g ai/ha,35
same,Plant response rating: Windgrass,[6]; 62 g ai/ha,45
same,Plant response rating: Windgrass,[6]; 125 g ai/ha,60
same,"Plant response rating: Oat, Wild",[7]; 16 g ai/ha,35
same,"Plant response rating: Oat, Wild",[7]; 31 g ai/ha,45
same,"Plant response rating: Oat, Wild",[7]; 62 g ai/ha,50
same,"Plant response rating: Oat, Wild",[7]; 125 g ai/ha,55
same,Plant response rating: Field Poppy,[8]; 16 g ai/ha,60
same,Plant response rating: Field Poppy,[8]; 31 g ai/ha,75
same,Plant response rating: Field Poppy,[8]; 62 g ai/ha,80
same,Plant response rating: Field Poppy,[8]; 125 g ai/ha,100
same,"Plant response rating: Ryegrass, Ital.",[9]; 16 g ai/ha,15
same,"Plant response rating: Ryegrass, Ital.",[9]; 31 g ai/ha,25
same,"Plant response rating: Ryegrass, Ital.",[9]; 62 g ai/ha,30
same,"Plant response rating: Ryegrass, Ital.",[9]; 125 g ai/ha,40
same,"Plant response rating (0 to 100), Field Poppy",[10],95
same,Plant response rating: Field Poppy,[10]; 62 g ai/ha,100
same,Plant response rating: Field Poppy,[10]; 125 g ai/ha,100
same,"Plant response rating (0 to 100), Canarygrass",[11],55
same,Plant response rating: Canarygrass,[11]; 31 g ai/ha,50
same,Plant response rating: Canarygrass,[11]; 62 g ai/ha,60
same,Plant response rating: Canarygrass,[11]; 125 g ai/ha,75
same,Plant response rating: Lambsquarters,[12]; 16 g ai/ha,65
same,Plant response rating: Lambsquarters,[12]; 31 g ai/ha,75
same,Plant response rating: Lambsquarters,[12]; 62 g ai/ha,80
same,Plant response rating: Lambsquarters,[12]; 125 g ai/ha,85
same,Plant response rating (scale of 0 to 100 where 0 is no effect and 100 is complete control),[13]; 125 g ai/ha,5
same,Plant response rating (scale of 0 to 100 where 0 is no effect and 100 is complete control),[13]; 250 g ai/ha,15
same,"Nutsedge, Yellow plant response rating (0 to 100)",[13]; 31 g ai/ha,0
same,"Nutsedge, Yellow plant response rating (0 to 100)",[13]; 62 g ai/ha,0
COc1nc(-c2ccc(Cl)cc2)nn1Cc1ccnc(C(F)(F)F)c1 [Compound 28],"Plant response rating, Kochia",[2]; 125 g ai/ha,90
same,"Plant response rating, Kochia",[2]; 500 g ai/ha,90
same,"Plant response rating, Ragweed",[3]; 125 g ai/ha,10
same,"Plant response rating, Ragweed","[3]; 500 g ai/ha, approx. 10 d",40
same,"Plant response rating (0 to 100), Galium",[5],65
same,Plant response rating: Galium,[5]; 62 g ai/ha,75
same,Plant response rating: Galium,[5]; 125 g ai/ha,80
same,Plant response rating: Windgrass,[6]; 16 g ai/ha,25
same,Plant response rating: Windgrass,[6]; 31 g ai/ha,25
same,Plant response rating: Windgrass,[6]; 62 g ai/ha,45
same,Plant response rating: Windgrass,[6]; 125 g ai/ha,45
same,"Plant response rating: Oat, Wild",[7]; 16 g ai/ha,30
same,"Plant response rating: Oat, Wild",[7]; 31 g ai/ha,40
same,"Plant response rating: Oat, Wild",[7]; 62 g ai/ha,45
same,"Plant response rating: Oat, Wild",[7]; 125 g ai/ha,50
same,Plant response rating: Field Poppy,[8]; 16 g ai/ha,65
same,Plant response rating: Field Poppy,[8]; 31 g ai/ha,65
same,Plant response rating: Field Poppy,[8]; 62 g ai/ha,65
same,Plant response rating: Field Poppy,[8]; 125 g ai/ha,70
same,"Plant response rating: Ryegrass, Ital.",[9]; 16 g ai/ha,20
same,"Plant response rating: Ryegrass, Ital.",[9]; 31 g ai/ha,20
same,"Plant response rating: Ryegrass, Ital.",[9]; 62 g ai/ha,30
same,"Plant response rating: Ryegrass, Ital.",[9]; 125 g ai/ha,45
same,"Plant response rating (0 to 100), Field Poppy",[10],70
same,Plant response rating: Field Poppy,[10]; 62 g ai/ha,100
same,Plant response rating: Field Poppy,[10]; 125 g ai/ha,100
same,"Plant response rating (0 to 100), Canarygrass",[11],10
same,Plant response rating: Canarygrass,[11]; 31 g ai/ha,40
same,Plant response rating: Canarygrass,[11]; 62 g ai/ha,60
same,Plant response rating: Canarygrass,[11]; 125 g ai/ha,65
same,Plant response rating: Lambsquarters,[12]; 16 g ai/ha,75
same,Plant response rating: Lambsquarters,[12]; 31 g ai/ha,90
same,Plant response rating: Lambsquarters,[12]; 62 g ai/ha,85
same,Plant response rating: Lambsquarters,[12]; 125 g ai/ha,95
